Laboratory results from patent publication US6664036B1, “Homogeneous single-part color developer per color film processing and method of using same” (priority 2002, dated 2003).

Assay: Solubility of Color Developing Agents CD-2 and CD-3 free base with co-solvent
Type: physicochemical
Parameters: unit not given here
Details: free base form, same manner as Example 1
Experimental: The co-solvent shown in TABLE I below were tested for their ability to solubilize KODAK Color Developing Agent CD-4 in free base form, in a solution matrix similar to conventional color developing concentrates. KODAK Color Developing Agent CD-4 was prepared in free base form by neutralizing a saturated solution of KODAK Color Developing Agent CD-4 disulfate salt with a stoichiometric quantity of 45% potassium hydroxide. The resulting mixture was stirred and allowed to separate into two layers, the KODAK Color Developing Agent CD-4 free base oil being in the top layer. The top layer was then drawn off for use in the solubility test.
A solution was prepared containing approximately 90 g/l solution of the various co-solvents using a stock solution containing 233 g/l of potassium carbonate, 84.5 g/l of potassium bicarbonate and 67 g/l of potassium sulfite at pH 10.4. Free acid co-solvents were neutralized with a stoichiometric quantity of 45% potassium hydroxide before the test solution was prepared. KODAK Color Developing Agent CD-4 in free base was then added to each test solution with stirring, and the quantity was monitored by weight until precipitation occurred. Using the final volume of the saturated solution and the amount of color developing agent added, the solubility of the color developing agent was calculated.
The solubility of KODAK Color Developing Agents CD-2 and CD-3 were tested in the same manner described in Example 1 for KODAK Color Developing Agent CD-4.

[1] = co-solvent Diethylene glycol 90 g/l
[2] = co-solvent Sodium Benzoate 85-88 g/l

Row | SMILES | Color Developing Agent Solubility [1] | Color Developing Agent Solubility [2]
1 | CCN(CCNS(C)(=O)=O)c1ccc(N)c(C)c1.CCN(CCNS(C)(=O)=O)c1ccc(N)c(C)c1.O=S(=O)(O)O.O=S(=O)(O)O.O=S(=O)(O)O [CD-3, 4-(N-ethyl-N-methanesulfonamidoethyl)-2-methylaniline sesquisulfate] | <4 | 66
2 | CCN(CC)c1ccc(N)c(C)c1.Cl [CD-2, 4-(N,N-diethyl)-2-methylaniline hydrochloride] | <4 | 12
